# Data: PubChem BioAssay AID1259407 (Chemical Carcinogenesis Research Information System (CCRIS), 2018)
# The source made the active and inactive calls. How the calls were made is not given here.
# Tested on: CCRIS mutagenicity, Ames/micronucleus/aberration tests
# Assay: CCRIS mutagenicity studies
structure (smiles),measurement,setting,value
Nc1ccccc1N,mutagenic call,"End Point: IN VITRO CHROMOSOMAL ABERRATIONS, Test System: CHINESE HAMSTER LUNG CELLS (CHL), Metabolic Activation: NONE",active; positive (structural changes)
same,mutagenic call,"End Point: IN VITRO CHROMOSOMAL ABERRATIONS, Test System: CHINESE HAMSTER LUNG CELLS (CHL), Metabolic Activation: RAT, LIVER, S-9, KC-400",inactive; negative
same,mutagenic call,"End Point: IN VITRO CHROMOSOMAL ABERRATIONS, Test System: CHINESE HAMSTER OVARY CELLS (CHO), Metabolic Activation: NONE",active; positive (structural changes)
same,mutagenic call,"End Point: IN VITRO CHROMOSOMAL ABERRATIONS, Test System: CHINESE HAMSTER OVARY CELLS (CHO), Metabolic Activation: RAT, LIVER, S-9, AROCLOR 1254",active; positive (structural changes)
same,mutagenic call,"End Point: IN VITRO CHROMOSOMAL ABERRATIONS, Test System: CHL CELLS, Metabolic Activation: NONE",active; positive (structural changes)
same,mutagenic call,"End Point: IN VITRO CHROMOSOMAL ABERRATIONS, Test System: CHL CELLS, Metabolic Activation: RAT, LIVER, S-9, SODIUM PHENOBARBITAL AND 5,6-BENZOFLAVONE",active; positive (structural changes)
same,mutagenic call,"Test System: AMES SALMONELLA TYPHIMURIUM, Strain/Indicator: TA97, Metabolic Activation: HAMSTER, LIVER, S-9, AROCLOR 1254 (10%), Method: PREINCUBATION",active; positive
same,mutagenic call,"Test System: AMES SALMONELLA TYPHIMURIUM, Strain/Indicator: TA97, Metabolic Activation: NONE, Method: PREINCUBATION",inactive; negative
same,mutagenic call,"Test System: AMES SALMONELLA TYPHIMURIUM, Strain/Indicator: TA97, Metabolic Activation: RAT, LIVER, S-9, AROCLOR 1254 (10%), Method: PREINCUBATION",active; positive
same,mutagenic call,"Test System: AMES SALMONELLA TYPHIMURIUM, Strain/Indicator: TA98(NR), Metabolic Activation: NONE, Method: PREINCUBATION",inactive; negative
same,mutagenic call,"Test System: AMES SALMONELLA TYPHIMURIUM, Strain/Indicator: TA98(NR), Metabolic Activation: RAT, LIVER, S-9, AROCLOR 1254, Method: PREINCUBATION",active; positive
same,mutagenic call,"Test System: AMES SALMONELLA TYPHIMURIUM, Strain/Indicator: TA98, Metabolic Activation: HAMSTER, LIVER, S-9, AROCLOR 1254 (10%), Method: PREINCUBATION",active; positive
same,mutagenic call,"Test System: AMES SALMONELLA TYPHIMURIUM, Strain/Indicator: TA98, Metabolic Activation: NONE, Method: STANDARD PLATE",inactive; negative
same,mutagenic call,"Test System: AMES SALMONELLA TYPHIMURIUM, Strain/Indicator: TA98, Metabolic Activation: PEA APICAL BUD S-9, Method: PREINCUBATION",active; positive
same,mutagenic call,"Test System: AMES SALMONELLA TYPHIMURIUM, Strain/Indicator: TA98, Metabolic Activation: PEA APICAL BUD S-9, Method: STANDARD PLATE",active; positive
same,mutagenic call,"Test System: AMES SALMONELLA TYPHIMURIUM, Strain/Indicator: TA98, Metabolic Activation: PLANT (PERSEA AMERICANA) S-117, Method: STANDARD PLATE",inactive; negative
same,mutagenic call,"Test System: AMES SALMONELLA TYPHIMURIUM, Strain/Indicator: TA98, Metabolic Activation: PLANT (ZEA MAYS) S-9, Method: STANDARD PLATE",inactive; negative
same,mutagenic call,"Test System: AMES SALMONELLA TYPHIMURIUM, Strain/Indicator: TA98, Metabolic Activation: RAT LIVER S-9, PHENOBARBITAL AND BETA-NAPHTHOFLAVONE, Method: PREINCUBATION",active; positive
same,mutagenic call,"Test System: AMES SALMONELLA TYPHIMURIUM, Strain/Indicator: TA98, Metabolic Activation: RAT, LIVER, S-9, AROCLOR 1254 (10%), Method: PREINCUBATION",active; positive
same,mutagenic call,"Test System: AMES SALMONELLA TYPHIMURIUM, Strain/Indicator: TA98, Metabolic Activation: RAT, LIVER, S-9, AROCLOR 1254, Method: PREINCUBATION",active; positive
same,mutagenic call,"Test System: AMES SALMONELLA TYPHIMURIUM, Strain/Indicator: TA98, Metabolic Activation: RAT, LIVER, S-9, AROCLOR 1254, Method: STANDARD PLATE",active; positive
same,mutagenic call,"Test System: AMES SALMONELLA TYPHIMURIUM, Strain/Indicator: TA98, Metabolic Activation: RAT, LIVER, S-9, PCB, Method: PREINCUBATION",active; positive
same,mutagenic call,"Test System: AMES SALMONELLA TYPHIMURIUM, Strain/Indicator: TA100(NR), Metabolic Activation: NONE, Method: PREINCUBATION",inactive; negative
same,mutagenic call,"Test System: AMES SALMONELLA TYPHIMURIUM, Strain/Indicator: TA100(NR), Metabolic Activation: RAT, LIVER, S-9, AROCLOR 1254, Method: PREINCUBATION",active; positive
same,mutagenic call,"Test System: AMES SALMONELLA TYPHIMURIUM, Strain/Indicator: TA100, Metabolic Activation: HAMSTER, LIVER, S-9, AROCLOR 1254 (10%), Method: PREINCUBATION",active; positive
same,mutagenic call,"Test System: AMES SALMONELLA TYPHIMURIUM, Strain/Indicator: TA100, Metabolic Activation: NONE, Method: STANDARD PLATE",inactive; negative
same,mutagenic call,"Test System: AMES SALMONELLA TYPHIMURIUM, Strain/Indicator: TA100, Metabolic Activation: PEA APICAL BUD S-9, Method: PREINCUBATION",active; positive
same,mutagenic call,"Test System: AMES SALMONELLA TYPHIMURIUM, Strain/Indicator: TA100, Metabolic Activation: PEA APICAL BUD S-9, Method: STANDARD PLATE",active; positive
same,mutagenic call,"Test System: AMES SALMONELLA TYPHIMURIUM, Strain/Indicator: TA100, Metabolic Activation: PLANT (PERSEA AMERICANA) S-117, Method: STANDARD PLATE",inactive; negative
same,mutagenic call,"Test System: AMES SALMONELLA TYPHIMURIUM, Strain/Indicator: TA100, Metabolic Activation: PLANT (ZEA MAYS) S-9, Method: STANDARD PLATE",inactive; negative
same,mutagenic call,"Test System: AMES SALMONELLA TYPHIMURIUM, Strain/Indicator: TA100, Metabolic Activation: RAT LIVER S-9, PHENOBARBITAL AND BETA-NAPHTHOFLAVONE, Method: PREINCUBATION",active; positive
same,mutagenic call,"Test System: AMES SALMONELLA TYPHIMURIUM, Strain/Indicator: TA100, Metabolic Activation: RAT, LIVER, S-9, AROCLOR 1254 (10%), Method: PREINCUBATION",active; positive
same,mutagenic call,"Test System: AMES SALMONELLA TYPHIMURIUM, Strain/Indicator: TA100, Metabolic Activation: RAT, LIVER, S-9, PCB, Method: PREINCUBATION",active; positive
same,mutagenic call,"Test System: AMES SALMONELLA TYPHIMURIUM, Strain/Indicator: TA1535, Metabolic Activation: HAMSTER, LIVER, S-9, AROCLOR 1254 (10%), Method: PREINCUBATION",inactive; negative
same,mutagenic call,"Test System: AMES SALMONELLA TYPHIMURIUM, Strain/Indicator: TA1535, Metabolic Activation: NONE, Method: PREINCUBATION",inactive; negative
same,mutagenic call,"Test System: AMES SALMONELLA TYPHIMURIUM, Strain/Indicator: TA1535, Metabolic Activation: RAT LIVER S-9, PHENOBARBITAL AND BETA-NAPHTHOFLAVONE, Method: PREINCUBATION",inactive; negative
same,mutagenic call,"Test System: AMES SALMONELLA TYPHIMURIUM, Strain/Indicator: TA1535, Metabolic Activation: RAT, LIVER, S-9, AROCLOR 1254 (10%), Method: PREINCUBATION",inactive; negative
same,mutagenic call,"Test System: AMES SALMONELLA TYPHIMURIUM, Strain/Indicator: TA1537, Metabolic Activation: NONE, Method: PREINCUBATION",inactive; negative
same,mutagenic call,"Test System: AMES SALMONELLA TYPHIMURIUM, Strain/Indicator: TA1537, Metabolic Activation: RAT LIVER S-9, PHENOBARBITAL AND BETA-NAPHTHOFLAVONE, Method: PREINCUBATION",active; positive
same,mutagenic call,"Test System: AMES SALMONELLA TYPHIMURIUM, Strain/Indicator: TA1538, Metabolic Activation: RAT, LIVER, S-9, AROCLOR 1254, Method: STANDARD PLATE",active; positive
same,mutagenic call,"Test System: AMES SALMONELLA TYPHIMURIUM, Strain/Indicator: TA1538, Metabolic Activation: RAT, LIVER, S-9, PHENOBARBITAL, Method: STANDARD PLATE",active; positive
same,mutagenic call,"Test System: AMES SALMONELLA TYPHIMURIUM, Strain/Indicator: YG1024, Metabolic Activation: PLANT (PERSEA AMERICANA) S-117, Method: STANDARD PLATE",inactive; negative
same,mutagenic call,"Test System: AMES SALMONELLA TYPHIMURIUM, Strain/Indicator: YG1024, Metabolic Activation: PLANT (ZEA MAYS) S-9, Method: STANDARD PLATE",inactive; negative
same,mutagenic call,"Test System: AMES SALMONELLA TYPHIMURIUM, Strain/Indicator: YG1029, Metabolic Activation: PLANT (PERSEA AMERICANA) S-117, Method: STANDARD PLATE",inactive; negative
same,mutagenic call,"Test System: AMES SALMONELLA TYPHIMURIUM, Strain/Indicator: YG1029, Metabolic Activation: PLANT (ZEA MAYS) S-9, Method: STANDARD PLATE",inactive; negative
same,mutagenic call,"Test System: E.COLI, Strain/Indicator: WP2UVRA, Metabolic Activation: NONE, Method: PREINCUBATION",inactive; negative
